This is an account of results in ChEMBL document CHEMBL4706760, “Novel Heteroaryl Compounds as Splicing Modulators for Modulating Splicing of mRNA and Uses Thereof for Treating Diseases” (ACS Med Chem Lett, 2021).

Type in all cases: subcellular
Test [1] in a line: Splicing modulation activity at Exon 12c mRNA in human cell lysates assessed as induction of poison exon inclusion in RNA measured cells pretreated for 24 hrs followed by first 16 hrs of incubation treated with cycloheximide for 8 hrs by qPCR. On the technique in general: Quantitative PCR measures a nucleic acid by following its amplification.
Test [2] in a line: Splicing modulation activity at Exon E7b mRNA in human cell lysates assessed as induction of poison exon inclusion in RNA measured cells pretreated for 24 hrs followed by first 16 hrs of incubation treated with cycloheximide for 8 hrs by qPCR.
Test [3] is described as follows: Splicing modulation activity at Exon E7c mRNA in human cell lysates assessed as induction of poison exon inclusion in RNA measured cells pretreated for 24 hrs followed by first 16 hrs of incubation treated with cycloheximide for 8 hrs by qPCR.
Test [4] in a line: Splicing modulation activity at wild type Exon 7/7b/7c/8 mRNA in human cell lysates assessed as induction of poison exon inclusion in RNA measured cells pretreated for 24 hrs followed by first 16 hrs of incubation treated with cycloheximide for 8 hrs by qPCR.
A short description of test [5]: Splicing modulation activity at wild type Exon 12/12b/12c/13 mRNA in human cell lysates assessed as induction of poison exon inclusion in RNA measured cells pretreated for 24 hrs followed by first 16 hrs of incubation treated with cycloheximide for 8 hrs by qPCR.

Take `CNC(=O)/C=C/c1cc(O)c(-c2ccc(N(C)[C@H]3C[C@]4(C)CCC[C@](C)(C3)N4)nn2)cc1F`: the EC50 in test [1] is 126 nM; in test [2], 41 nM; in test [3] it was 310 nM. Moreover, the IC50 in test [4] was found to be 99.1 nM; in test [5], 162 nM.
As for `CN(c1ccc(-c2cc(F)c(-c3cn[nH]c3)cc2O)nn1)[C@@H]1C[C@H]2CCC[C@@H](C1)N2`, the EC50 was found to be 168 nM in test [2] and 162 nM in test [3]. The IC50 in test [4] turned out to be 46 nM.
On to `CN(c1ccc(-c2cc(F)c(-c3ccn(C)c(=O)c3)cc2O)nn1)[C@H]1C[C@]2(C)CCC[C@](C)(C1)N2`, for which the EC50 in test [1] was found to be 238 nM. For the same compound, the IC50 in test [5] stood at 116 nM.
Take `CNC(=O)c1ccc2cc(-c3ccc(N(C)[C@H]4C[C@]5(C)CCC[C@](C)(C4)N5)nn3)c(O)cc2n1`: the EC50 in test [1] came out at 46.1 nM; in test [2], 9.3 nM; in test [3], 60.2 nM. Also, the IC50 in test [4] was 27.6 nM; in test [5], 54 nM.
The matching figures for `CN(c1ccc(-c2cc(F)c(-c3ccn(CF)c(=O)c3)cc2O)nn1)[C@H]1C[C@]2(C)CCC[C@](C)(C1)N2`: 92.9 nM, 88 nM, 293 nM, 93.9 nM and 94.7 nM.
In the case of `CN(c1ncc(-c2ccc(-c3cn[nH]c3)cc2O)nn1)[C@@H]1C[C@H]2CC[C@@H](C1)N2`, the EC50 is 39.6 nM in test [2] and 294 nM in test [3]. For the same compound, the IC50 in test [4] was determined as 150 nM.

The EC50 is the concentration at which the effect is half-maximal. The term IC50 denotes the point on the concentration scale where inhibition reaches its midpoint.
